BindingDB's records for doi:10.1021/jm058041z (University of Würzburg, 2005)

Test: Inhibition of acetylcholinesterase

Question: With Nc1c2c(nc3c(CO)cccc13)CCCC2 [9-amino-5,6,7,8-tetrahydroacridin-4yl)methano] as the molecule, how does the IC50 read?
Answer: The IC50 was 0.125 µM.
